Experiments:
[1] = Liquid; for vapor or sublimation pressure: Closed cell (Static) method; for mass density: 298.15 K, 101.33 kPa, Vibrating tube method
[2] = excess molar enthalpy (molar enthalpy of mixing); xn = mol fraction of the nth substance listed; details: 303.15 K, 101 kPa, Liquid, Calvet calorimetry

CCN(CC)CCCN [N,N-diethylpropane-1,3-diamine]
[1]
Details	vapor or sublimation pressure [kPa]
273.15 K	0.031
283.15 K	0.073
293.15 K	0.155
303.15 K	0.31
313.15 K	0.586
323.15 K	1.053
333.15 K	1.809
343.15 K	2.987
353.15 K	4.759
363.15 K	7.346

Details	mass density [kg/m3]
[1]	821.363

CCN(CC)CCCN [N,N-diethylpropane-1,3-diamine] + C1CCCCC1
[2]
Details	excess molar enthalpy [kcal/mol]
x1 = 0.1022	0.141
x1 = 0.2027	0.209
x1 = 0.3028	0.245
x1 = 0.3197	0.247
x1 = 0.3519	0.251
x1 = 0.3953	0.255
x1 = 0.407	0.257
x1 = 0.4449	0.257
x1 = 0.4943	0.254
x1 = 0.5061	0.255
x1 = 0.5307	0.248
x1 = 0.5351	0.248
x1 = 0.5595	0.243
x1 = 0.5741	0.239
x1 = 0.6073	0.228
x1 = 0.6523	0.21
x1 = 0.7017	0.187
x1 = 0.7997	0.131
x1 = 0.8696	0.0837

C1CCCCC1 [cyclohexane]
[1]
Details	vapor or sublimation pressure [kPa]
273.15 K	3.726
283.15 K	6.352
293.15 K	10.36
303.15 K	16.26
313.15 K	24.65
323.15 K	36.24
333.15 K	51.85
343.15 K	72.4
353.15 K	98.87
363.15 K	132.35

Details	mass density [kg/m3]
[1]	774.1

From the NIST ThermoML archive (doi:10.1016/j.jct.2010.01.016)
